# In ChEMBL document CHEMBL3507680, “University of Dundee, Gates Library screen for HepG2 cell viability”:
# Experiment: Human HepG2 cell viability assay in 384 well format
# Assay type: toxicity, cell-based
# Parameters: dose 125 nL, time 70.5 hour; concentration not given beside the values
# Details: HepG2 cells, read-out: Inhibition
row,SMILES,cytotoxicity at 70.5 h
1,CN(Cc1ccc2c(c1)OCCO2)C(=O)NCCc1cnn(C)c1,6.83%
2,Cc1cnc(CNC(=O)C2CCOc3ccccc3C2)cn1 (stereo unspecified),-19.3%
3,CN(C)C(=O)N[C@@H]1CN(Cc2ccc3c(c2)OCO3)[C@@H]2CCCO[C@@H]21,3.25%
4,CC(C)C(C)N(C)Cc1nnc(-c2ccco2)o1 (stereo unspecified),17.4%
5,CC(=O)c1cccc(NC(=O)NCCOCC2CC2)c1,-6.67%
6,CC(C)(C)NC(=O)CCn1ncc2c(Cl)cccc21,-5.97%
7,CC(C)C(C(=O)N1CCN(c2nccs2)CC1)n1cncn1 (stereo unspecified),0.606%
8,O=C(c1cnns1)N1CCN(Cc2ccc(F)cc2Cl)CC1,-4.81%
9,CC(=O)NC1CCCN(Cc2csc(-c3ncccn3)n2)C1 (stereo unspecified),18.7%
10,O=C([C@H]1COC[C@H]2CN(C3CCCC3)C[C@H]21)N1CCCO1,41.4%
11,CC(C)Cn1c(=O)nc2n1C(=O)N(c1ccc(F)cc1)C2,-25.8%
12,CCC(CC)NC(=O)c1ccc2nnc(C3CCN(S(C)(=O)=O)C3)n2c1 (stereo unspecified),6.79%
13,Cc1ccn(CCC(=O)N2CCOC(c3nc(-c4cccs4)no3)C2)n1 (stereo unspecified),-2.76%
14,CCN1CCC(NC(=O)CN2CCCC2Cn2cncn2)CC1 (stereo unspecified),-2.95%
15,NC(=O)CCCNC(=O)Cc1csc(Cc2ccccn2)n1,-135%
16,CN1CCN(C(=O)c2ccnc(N3CCOC(C(F)(F)F)C3)c2)CC1 (stereo unspecified),19%
17,O=C(NCc1cccnc1N1CCc2ccccc2C1)c1cnc[nH]1,-10.2%
18,Cc1cccc(C)c1OCC(=O)NC(C)c1nnc2n1CCC2 (stereo unspecified),-7.81%
19,COc1ccc(CN2CCC[C@@H]3CN(C(=O)c4ccco4)C[C@@H]32)cc1,-10.9%
20,CN(C)C(=O)C1CN(Cc2ccsc2)CCN(S(C)(=O)=O)C1 (stereo unspecified),-6.36%
21,CC(C)(C)c1ncc2c(n1)CN(C(=O)c1ccc(C#N)nc1)C2,11.4%
22,Cn1nccc1CNC(=O)NC1CCN(c2ncccc2Cl)C1 (stereo unspecified),-0.776%
23,Cc1ccc(CN2CC3(CCN(C(=O)Cc4ccc(Cl)cc4)C3)C2)o1,-5.73%

row,SMILES,cytotoxicity at 70.5 h
1,Cc1cnn(CC2CCCN2C(=O)c2nccc3ccccc23)c1 (stereo unspecified),-15.9%
2,CCC(C)c1csc(NC(=O)Cc2csc(-c3nnc[nH]3)n2)n1 (stereo unspecified),9.25%
3,COc1ccccc1OCCN1CCCC(c2noc(C3CC3)n2)C1 (stereo unspecified),-0.413%
4,COc1cccc(CCC(=O)Nc2ccn(C)n2)c1OC,-10%
5,O=C(NCCOc1ccc2c(c1)OCO2)N1CCC1,-12.5%
6,NC(=O)CSc1nccc(-c2ccc3c(c2)OCO3)n1,-2.27%
7,CC(C)c1cccc(-n2cc(O)c(C(=O)NCCC(=O)N(C)C)n2)c1,-6.63%
8,C[C@@H]1CN(C2CCN(c3ccccc3F)CC2)CC[C@]1(C)O,-5.09%
9,CC1CN(CC(=O)N2CCOCC2)CCN1Cc1nccn1C (stereo unspecified),-2.16%
10,NC(=O)c1ccccc1-n1cc(-c2cccc(C(=O)O)c2)cn1,-9.16%
11,COCCCN1CC2(CCN(C(=O)Cc3csc(C)n3)CC2)CC1=O,-7.77%
12,Cn1nc2c(cc1=O)CN(Cc1nc3ccccc3c(=O)[nH]1)CC2,-6.45%
13,CS(=O)(=O)N1Cc2ccccc2CC2(CCN(Cc3ccccc3)C2)C1 (stereo unspecified),-9.03%
14,O=C(NC1CC1)C1CCCN1c1ncnc2ccsc12 (stereo unspecified),-9.43%
15,O=C(NC1CCCC1)c1nc2c(o1)CN(C(=O)CO)C2,-1.18%
16,O=C(NCc1cc(-c2ccccc2)no1)NC1CCCCNC1=O (stereo unspecified),4.05%
17,Cc1ccc(CN(CCCn2ccnc2)Cc2[nH]cnc2C)s1,2.51%
18,CNC(=O)CSc1cnn(CC(=O)Nc2cccc(Cl)c2C)c(=O)c1Cl,-16.3%
19,NC(=O)N1CC[C@H]2CO[C@H](CNC(=O)c3ccnnc3)[C@H]2C1,-0.828%
20,COCCC(=O)N1CCC(c2cc(O)n(C)n2)C1 (stereo unspecified),1.63%
21,CS(=O)(=O)N1Cc2cnn(CC3CC3)c2C(COCC2CC2)C1 (stereo unspecified),-6.21%
22,CO[C@@H]1CCN(Cc2cccc(C)n2)[C@@H]2CN(Cc3ccncc3)C[C@@H]21,-1.88%
23,Cn1cc(CN2C[C@H]3CCN(C(=O)c4cscn4)C[C@H]3C2)cn1,27.4%

row,SMILES,cytotoxicity at 70.5 h
1,COCCCN1CCN(C(=O)C(c2cccc(F)c2)N(C)C)CC1 (stereo unspecified),-5.78%
2,COCCO[C@@H]1C[C@H]2CN(C(=O)c3cnccn3)CCN2C1,-6.2%
3,Cn1cccc1C(=O)N1C[C@@H]2C[C@@H](c3nc(C4CC4)cs3)O[C@@H]2C1,4.85%
4,CN1CCN(C(=O)C2(S(C)(=O)=O)CCCC2)Cc2ccccc21,-13.4%
5,CNC(=O)c1cccc(NC(=O)NC(C)c2cc(C)oc2C)c1C (stereo unspecified),-8.35%
6,C=C(C)COc1cccc(CN(C)C(C)c2ccncn2)c1 (stereo unspecified),-4.71%
7,CCOc1cc(C(=O)N(C)C)ccc1NC(=O)C(C)c1ccsc1 (stereo unspecified),26%
8,CC(C)(C)c1ccn(C2(C(=O)O)CCN(c3nccc(N)n3)CC2)n1,-3.64%
9,COc1ccc(C(N)c2cccc(S(C)(=O)=O)c2)cc1 (stereo unspecified),-1.22%
10,COc1ccc(C(=O)NC[C@H]2COCc3nc4cc(C)ccc4n32)cc1,-4.37%
11,CC(C)c1nnc2n1CCN(c1nn3cc(C(C)(C)C)nc3s1)C2,-8.04%
12,CN(C)c1nccc(CNC(=O)NC(C)(C)C)n1,-0.141%
13,O=C1NCCCc2c1oc1ccc(O)c(CN3CCOCC3)c21,30.3%
14,Cc1nn2cccnc2c1C(=O)NCc1ccccc1OC1CCC1,-4.01%
15,Cc1c(F)cccc1S(=O)(=O)NCCN,-0.256%
16,Cc1ccccc1N1CCCN(c2ccncn2)CC1,2.64%
17,COc1ccccc1CN1CC(OC)CN(C(=O)OCC(C)C)CC1=O (stereo unspecified),-3.02%
18,c1ccc(-c2cc(CC3(NCc4ncc[nH]4)COC3)no2)cc1,-4.27%
19,N#Cc1ccc(C(=O)NS(=O)(=O)c2ccc(F)c(F)c2)cc1,28.9%
20,Cc1ccc(C(C(=O)NCCN2CCCCCC2)N(C)C)cc1 (stereo unspecified),5.23%
21,CSCCCN1C(=O)CC[C@H]2CN(Cc3ncc[nH]3)CC[C@H]21,-5.45%
22,Cc1cnn(CCC(=O)N2CCCC(c3cc(C(N)=O)[nH]n3)C2)c1 (stereo unspecified),-10.9%
23,CC(CC(=O)NCCCn1cccn1)c1cccnc1 (stereo unspecified),-6.56%

row,SMILES,cytotoxicity at 70.5 h
1,Cc1noc(C)c1CC(=O)N1CCCC(c2noc(C(C)C)n2)C1 (stereo unspecified),-9.31%
2,CC1CCCN(Cc2c(C3CC3)[nH]c3ncccc23)C1 (stereo unspecified),-4.53%
3,Cc1cccc2c1nc1n2[C@@H](CNC(=O)Cc2ccccc2)COC1,-1.08%
4,c1cc(CNCc2ccnc(N3CCCCC3)c2)c2c(c1)OCCCO2,-10.6%
5,Cn1nccc1NC(=O)c1cccc(CN2C[C@H]3CC[C@@H](C2)N3)c1,-1.03%
6,Cc1ccc(CNC(C)c2nnc3n2CCCC3)o1 (stereo unspecified),-8.48%
7,O=C(NCc1cc[nH]n1)NCC(O)c1ccc(F)cc1F (stereo unspecified),-9.36%
8,CC(NC(=O)N(C)Cc1ccsc1)c1nncn1C (stereo unspecified),-2.73%
9,CCC[C@@H](NC(N)=O)C(=O)N1CCc2ccccc2CC1,-3.57%
10,Cc1cnc2c(S(=O)(=O)NCC3CCS(=O)(=O)C3)cccc2c1 (stereo unspecified),51.3%
11,Cn1cc(CN2CCCC23CCN(Cc2nccn2C)CC3)cn1,3.37%
12,CN(C(=O)CN1CCCC1c1cnn(C)c1)C(C)(C)C#N (stereo unspecified),1.19%
13,NC(=O)c1ccc(NC(=O)c2ccncc2Cl)cn1,-4.51%
14,CCCN1CCC(Nc2nc(CC)ns2)CC1,-2.52%
15,O=C(NC1CC1)[C@H]1CC[C@@H]2[C@@H](CCN2Cc2ccsc2)O1,-10.2%
16,COc1ccc(C(C)NC(=O)NCCc2ccc(C)nc2)c(OC)c1 (stereo unspecified),24%
17,Clc1cccc(Cl)c1CN(CCCN1CCOCC1)Cc1cccnc1,-11.4%
18,O=C(NCC1(c2ccc(F)cc2)CCCC1)N1CCOC(CO)C1 (stereo unspecified),2.92%
19,COCCN(C)CC1CCCN1S(=O)(=O)c1cccc(F)c1F (stereo unspecified),-4.32%
20,O=C1CC(N(C(=O)CCc2cc(F)ccc2F)C2CC2)C(=O)N1 (stereo unspecified),-7.39%
21,CCCc1cc(=O)[nH]c(-c2ccccc2CN(C)CCC(C)C)n1,18.2%
22,CN(Cc1ccco1)C(=O)CN1CCCC1Cn1cccn1 (stereo unspecified),-3.69%
23,CC(C)=CCN1C(=O)[C@H]2CC[C@@H]1CN(C(=O)CCc1nc(Cl)n[nH]1)C2,-14.8%

row,SMILES,cytotoxicity at 70.5 h
1,NC(=O)CCCNC(=O)c1cc(Br)c2c(c1)OCCO2,-10.4%
2,Cc1cnc(NC(=O)CSC2CCc3ccccc3NC2=O)s1 (stereo unspecified),1.54%
3,Cc1cnc(CNC(=O)[C@@]23CCO[C@@H]2CCNC3)cn1,0.0687%
4,O=C(c1nnn(-c2ccc(F)cc2)n1)N(CCO)Cc1ccccc1,-1.48%
5,COCCn1ccc(=O)c(OCC(=O)Nc2ccc(OC)c(Cl)c2)c1C,-5.11%
6,O=C(CS(=O)(=O)Cc1ccc(F)cc1)NC1CCCCNC1=O (stereo unspecified),-6.01%
7,Cc1nnc(N2CCCC3(CN(Cc4ccc(F)cc4)CCO3)C2)o1 (stereo unspecified),-1.36%
8,CN(Cc1cccc(O)c1)C(=O)c1ccc(CCC(C)(C)O)cc1,0.182%
9,CCOC(=O)CCC(=O)NC(C)c1ccc(NC(=O)CC)cc1 (stereo unspecified),-3.08%
10,COc1c(C)cnc(CN(C)C(=O)c2ccccc2F)c1C,-4.79%
11,Cn1ccnc1-c1noc(NCc2ccc(Cl)cc2)n1,-8.5%
12,Fc1cc(CCNc2ccc3nccn3n2)c2c(c1)COCO2,5.74%
13,CN(Cc1cc(-c2ccccc2)no1)Cc1nccn1C,9.3%
14,Cc1cc(C)n(CCC(=O)N2CCCC(n3nc(C)nc3C)C2)n1 (stereo unspecified),-6.97%
15,Cc1noc(C2CCC3(CCN(C(=O)C4CCOCC4)CC3)O2)n1 (stereo unspecified),2.64%
16,O=C(Cc1ccc2c(c1)CCC2)NC1CCN(Cc2ccccc2)CC1,30.6%
17,Cc1nc([C@@H]2C[C@@H]3CCN(C(=O)c4ccnnc4)C[C@H]3O2)sc1C,5.38%
18,CCOc1ccc(Cl)c(C(=O)NC(Cc2ccccc2)C(N)=O)n1 (stereo unspecified),-1.23%
19,O=C(NCC1CCC2(CCNCC2)CO1)c1ccno1 (stereo unspecified),3.09%
